Results taken from patent US20180319753A1, “MICROBIOCIDAL OXADIAZOLE DERIVATIVES” (SYNGENTA PARTICIPATIONS AG, priority 2015, published 2018).

Assays:
[1] = test system: Glomerella lagenarium (Colletotrichum lagenarium); test: Glomerella lagenarium (Colletotrichum lagenarium) liquid culture / cucumber / preventative (anthracnose); assay type: cell-based; settings: Colletotrichum orbiculare; 20 ppm in the applied formulation; liquid culture in PDB, 24° C.; 3 to 4 days after application; read-out: disease control compared to untreated control (inhibition of growth measured photometrically)
In short: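 In liquid culture, cryo-stored conidia in potato dextrose broth were exposed to compound delivered from DMSO solution. Growth inhibition was measured photometrically after 3 to 4 days at 24° C.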

[2] = test system: Puccinia recondita f. Sp. Tritici; test: Puccinia recondita f. sp. tritici / wheat / leaf disc preventative (brown rust); assay type: in vivo; settings: foliar, 200 ppm in the applied formulation, wheat leaf segments cv. Kanzler, inoculated 1 day after application, assessed 7 to 9 days after application, read-out: disease control compared to untreated control leaf disks
Procedure: Leaf disks or leaf segments of various plant species are cut from plants grown in a greenhouse. The cut leaf disks or segments are placed in multiwell plates (24-well format) onto water agar. The leaf disks are sprayed with a test solution before (preventative) or after (curative) inoculation. Compounds to be tested are prepared as DMSO solutions (max. 10 mg/ml) which are diluted to the appropriate concentration with 0.025% Tween20 just before spraying. The inoculated leaf disks or segments are incubated under defined conditions (temperature, relative humidity, light, etc.) according to the respective test system. A single evaluation of disease level is carried out 3 to 14 days after inoculation, depending on the pathosystem. Percent disease control relative to the untreated check leaf disks or segments is then calculated. Wheat leaf segments cv. Kanzler were placed on agar in multiwell plates (24-well format) and sprayed with the formulated test compound diluted in water. The leaf disks were inoculated with a spore suspension of the fungus 1 day after application. The inoculated leaf segments were incubated at 19° C. and 75% relative humidity (rh) under a light regime of 12 hours light/12 hours darkness in a climate cabinet and the activity of a compound was assessed as percent disease control compared to untreated when an appropriate level of disease damage appears in untreated check leaf segments (7 to 9 days after application). The following compounds at 200 ppm in the applied formulation give at least 80% disease control in this test when compared to untreated control leaf disks under the same conditions, which show extensive disease development.

Phakopsora pachyrhizi = Phakopsora pachyrhizi / soybean / leaf disc preventative (Asian soybean rust); assay type: in vivo; settings: foliar, 200 ppm in the applied formulation, soybean leaf disks, inoculated one day after application, assessed 12 to 14 days after application, read-out: disease control compared to untreated control leaf disks
In short: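 Read-out is percent disease control relative to untreated check discs, assessed once untreated discs show adequate disease, 12 to 14 days after application. Compounds, tested at 200 ppm in the applied formulation, are sprayed onto soybean leaf discs one day before inoculation with a spore suspension.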

[3] = test system: Puccinia recondita f. Sp. Tritici; test: Puccinia recondita f. sp. tritici / wheat / leaf disc curative (brown rust); assay type: in vivo; settings: foliar, 200 ppm in the applied formulation, wheat leaf segments cv. Kanzler, applied 1 day after inoculation, assessed 6 to 8 days after application, read-out: disease control compared to untreated control leaf disks
Procedure: Leaf disks or leaf segments of various plant species are cut from plants grown in a greenhouse. The cut leaf disks or segments are placed in multiwell plates (24-well format) onto water agar. The leaf disks are sprayed with a test solution before (preventative) or after (curative) inoculation. Compounds to be tested are prepared as DMSO solutions (max. 10 mg/ml) which are diluted to the appropriate concentration with 0.025% Tween20 just before spraying. The inoculated leaf disks or segments are incubated under defined conditions (temperature, relative humidity, light, etc.) according to the respective test system. A single evaluation of disease level is carried out 3 to 14 days after inoculation, depending on the pathosystem. Percent disease control relative to the untreated check leaf disks or segments is then calculated.
Wheat leaf segments cv. Kanzler are placed on agar in multiwell plates (24-well format). The leaf segments are then inoculated with a spore suspension of the fungus. Plates were stored in darkness at 19° C. and 75% relative humidity. The formulated test compound diluted in water was applied 1 day after inoculation. The leaf segments were incubated at 19° C. and 75% relative humidity under a light regime of 12 hours light/12 hours darkness in a climate cabinet and the activity of a compound was assessed as percent disease control compared to untreated when an appropriate level of disease damage appears in untreated check leaf segments (6 to 8 days after application).
The following compounds at 200 ppm in the applied formulation give at least 80% disease control in this test when compared to untreated control leaf disks under the same conditions, which show extensive disease development.

## [O-][S+](c1ccc(-c2noc(C(F)(F)F)n2)cc1)C1CCCCC1 (centres unmarked) [Compound 2.3, 3-(4-cyclohexylsulfinylphenyl)-5-(trifluoromethyl)-1,2,4-oxadiazole]
other
  melting point: 108 to 114 °C
[1]
  inhibition at 20 ppm: ≥ 80%
[2]
  pest or weed control at 200 ppm: ≥ 80%
Phakopsora pachyrhizi
  pest or weed control at 200 ppm: ≥ 80%
[3]
  pest or weed control at 200 ppm: ≥ 80%

## FC(F)(F)c1nc(-c2ccc(Sc3ccccc3)cc2)no1 [Compound 1.1, 3-(4-phenylsulfanylphenyl)-5-(trifluoromethyl)-1,2,4-oxadiazole]
other
  melting point: 59 to 62 °C
[1]
  inhibition at 20 ppm: ≥ 80%
[2]
  pest or weed control at 200 ppm: ≥ 80%
Phakopsora pachyrhizi
  pest or weed control at 200 ppm: ≥ 80%
[3]
  pest or weed control at 200 ppm: ≥ 80%

## Fc1c(CSc2ccccc2)ccc(-c2noc(C(F)(F)F)n2)c1F [Compound 1.26, 3-[2,3-difluoro-4-(phenylsulfanylmethyl)phenyl]-5-(trifluoromethyl)-1,2,4-oxadiazole]
other
  melting point: 52 to 58 °C
[1]
  inhibition at 20 ppm: ≥ 80%
[2]
  pest or weed control at 200 ppm: ≥ 80%
Phakopsora pachyrhizi
  pest or weed control at 200 ppm: ≥ 80%
[3]
  pest or weed control at 200 ppm: ≥ 80%

## COc1ccc(Sc2ccc(-c3noc(C(F)(F)F)n3)cc2)cc1 [Compound 1.2, 3-[4-(4-methoxyphenyl)sulfanylphenyl]-5-(trifluoromethyl)-1,2,4-oxadiazole]
other
  melting point: 55 to 60 °C
[1]
  inhibition at 20 ppm: ≥ 80%
[2]
  pest or weed control at 200 ppm: ≥ 80%
Phakopsora pachyrhizi
  pest or weed control at 200 ppm: ≥ 80%
[3]
  pest or weed control at 200 ppm: ≥ 80%

## [O-][S+](c1ccc(-c2noc(C(F)(F)F)n2)cc1)c1ccc(F)cc1F (centres unmarked) [Compound 2.5, 3-[4-(2,4-difluorophenyl)sulfinyl-phenyl]-5-(trifluoromethyl)-1,2,4-oxadiazole]
other
  melting point: 118 to 123 °C
[1]
  inhibition at 20 ppm: ≥ 80%
[2]
  pest or weed control at 200 ppm: ≥ 80%
Phakopsora pachyrhizi
  pest or weed control at 200 ppm: ≥ 80%
[3]
  pest or weed control at 200 ppm: ≥ 80%

## [O-][S+](CCc1ccccc1)c1ccc(-c2noc(C(F)(F)F)n2)cc1 (centres unmarked) [Compound 2.8, 3-[4-(2-phenylethylsulfinyl)phenyl]-5-(trifluoromethyl)-1,2,4-oxadiazole]
other
  melting point: 81 to 85 °C
[1]
  inhibition at 20 ppm: ≥ 80%
[2]
  pest or weed control at 200 ppm: ≥ 80%
Phakopsora pachyrhizi
  pest or weed control at 200 ppm: ≥ 80%
[3]
  pest or weed control at 200 ppm: ≥ 80%

## [O-][S+](c1ccccc1)c1ccc(-c2noc(C(F)(F)F)n2)cc1 (centres unmarked) [Compound 2.1, 3-[4-(benzenesulfinyl)phenyl]-5-(trifluoromethyl)-1,2,4-oxadiazole]
other
  melting point: 97 to 106 °C
[1]
  inhibition at 20 ppm: ≥ 80%
[2]
  pest or weed control at 200 ppm: ≥ 80%
Phakopsora pachyrhizi
  pest or weed control at 200 ppm: ≥ 80%
[3]
  pest or weed control at 200 ppm: ≥ 80%

## Cc1cc(C)cc([S+]([O-])c2ccc(-c3noc(C(F)(F)F)n3)cc2)c1 (centres unmarked) [Compound 2.12, 3-[4-(3,5-dimethylphenyl)sulfinyl-phenyl]-5-(trifluoromethyl)-1,2,4-oxadiazole]
other
  melting point: 71 to 83 °C
[1]
  inhibition at 20 ppm: ≥ 80%
[2]
  pest or weed control at 200 ppm: ≥ 80%
Phakopsora pachyrhizi
  pest or weed control at 200 ppm: ≥ 80%
[3]
  pest or weed control at 200 ppm: ≥ 80%

## [O-][S+](Cc1ccc(-c2noc(C(F)(F)F)n2)cn1)c1ccccc1 (centres unmarked) [Compound 2.28, 3-[6-(benzenesulfinylmethyl)-3-pyridyl]-5-(trifluoromethyl)-1,2,4-oxadiazole]
other
  melting point: 116 to 120 °C
[1]
  inhibition at 20 ppm: ≥ 80%
[2]
  pest or weed control at 200 ppm: ≥ 80%
Phakopsora pachyrhizi
  pest or weed control at 200 ppm: ≥ 80%
[3]
  pest or weed control at 200 ppm: ≥ 80%

## O=S(=O)(c1ccc(-c2noc(C(F)(F)F)n2)cc1)C1CCCC1 [Compound 3.16, 3-(4-cyclopentylsulfonylphenyl)-5-(trifluoromethyl)-1,2,4-oxadiazole]
other
  melting point: 85 to 92 °C
[1]
  inhibition at 20 ppm: ≥ 80%
[2]
  pest or weed control at 200 ppm: ≥ 80%
Phakopsora pachyrhizi
  pest or weed control at 200 ppm: ≥ 80%
[3]
  pest or weed control at 200 ppm: ≥ 80%

## O=S(=O)(c1ccccc1)c1ccc(-c2noc(C(F)(F)F)n2)cc1 [Compound 3.1, 3-[4-(benzenesulfonyl)phenyl]-5-(trifluoromethyl)-1,2,4-oxadiazole]
other
  melting point: 128 to 132 °C
[1]
  inhibition at 20 ppm: ≥ 80%
[2]
  pest or weed control at 200 ppm: ≥ 80%
Phakopsora pachyrhizi
  pest or weed control at 200 ppm: ≥ 80%
[3]
  pest or weed control at 200 ppm: ≥ 80%

## [O-][S+](c1ccccc1)c1ccc(-c2noc(C(F)(F)F)n2)cn1 (centres unmarked) [Compound 2.10, 3-[6-(benzenesulfinyl)-3-pyridyl]-5-(trifluoromethyl)-1,2,4-oxadiazole]
other
  melting point: 91 to 97 °C
[1]
  inhibition at 20 ppm: ≥ 80%
[2]
  pest or weed control at 200 ppm: ≥ 80%
Phakopsora pachyrhizi
  pest or weed control at 200 ppm: ≥ 80%
[3]
  pest or weed control at 200 ppm: ≥ 80%

## [O-][S+](CC(F)(F)F)c1ccc(-c2noc(C(F)(F)F)n2)cc1 (centres unmarked) [Compound 2.6, 3-[4-(2,2,2-trifluoroethylsulfinyl)phenyl]-5-(trifluoromethyl)-1,2,4-oxadiazole]
other
  melting point: 93 to 100 °C
[1]
  inhibition at 20 ppm: ≥ 80%
[2]
  pest or weed control at 200 ppm: ≥ 80%
Phakopsora pachyrhizi
  pest or weed control at 200 ppm: ≥ 80%
[3]
  pest or weed control at 200 ppm: ≥ 80%
